Results reported in paper PMC5951806, “Rapid labelling and covalent inhibition of intracellular native proteins using ligand-directed N-acyl-N-alkyl sulfonamide” (Nature Communications, 2018).

Tests used:
Test in all cases: TMT LC-MSMS of 11-labelled proteins
Assay type in all cases: cell-based
[1] = molecular target: T1, Isoform 3 of Hexokinase-1 (HK1) (Homo sapiens, UniProt P19367); for Abundance Ratio: (11) / (DMSO): test concentration or dose not given here
T1 sequence (P19367 1-921 isoform P19367-3): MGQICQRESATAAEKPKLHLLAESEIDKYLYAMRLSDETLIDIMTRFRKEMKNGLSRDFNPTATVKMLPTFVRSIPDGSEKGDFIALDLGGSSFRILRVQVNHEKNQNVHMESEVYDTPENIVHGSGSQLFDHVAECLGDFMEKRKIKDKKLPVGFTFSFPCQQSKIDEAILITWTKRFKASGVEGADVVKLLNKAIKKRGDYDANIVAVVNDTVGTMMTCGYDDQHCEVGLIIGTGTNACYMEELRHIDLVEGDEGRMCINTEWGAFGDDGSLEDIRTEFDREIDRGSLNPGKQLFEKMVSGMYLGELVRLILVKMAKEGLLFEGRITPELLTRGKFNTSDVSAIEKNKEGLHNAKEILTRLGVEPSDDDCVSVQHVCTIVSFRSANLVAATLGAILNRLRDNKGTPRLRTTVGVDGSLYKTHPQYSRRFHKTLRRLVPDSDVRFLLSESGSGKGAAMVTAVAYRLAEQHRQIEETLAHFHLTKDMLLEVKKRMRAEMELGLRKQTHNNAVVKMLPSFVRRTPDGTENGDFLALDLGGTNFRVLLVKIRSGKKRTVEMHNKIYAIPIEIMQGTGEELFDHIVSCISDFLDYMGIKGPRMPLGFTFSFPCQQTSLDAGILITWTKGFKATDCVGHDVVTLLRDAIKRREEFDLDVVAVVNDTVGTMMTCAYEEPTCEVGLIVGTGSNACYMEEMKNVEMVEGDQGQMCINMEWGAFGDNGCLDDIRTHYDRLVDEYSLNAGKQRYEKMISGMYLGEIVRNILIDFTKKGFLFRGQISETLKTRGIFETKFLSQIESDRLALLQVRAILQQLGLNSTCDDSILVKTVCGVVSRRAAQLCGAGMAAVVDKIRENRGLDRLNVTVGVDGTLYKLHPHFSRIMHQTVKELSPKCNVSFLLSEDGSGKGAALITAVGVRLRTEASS
Source text: (§1) Supplement 41467_2018_4343_MOESM4_ESM.xlsx, sheet "Exp3" | column: Abundance Ratio: (11) / (11 with PU-H71); Abundance Ratio: (11) / (DMSO); Abundances (Grouped): 11; Abundances (Grouped): 11 with PU-H71

[2] = molecular target: T2, Monocarboxylate transporter 4 (SLC16A3) (Homo sapiens, UniProt O15427); for Abundance Ratio: (11) / (11 with PU-H71): test concentration or dose not given here; for Abundance Ratio: (11) / (DMSO): test concentration or dose not given here
T2 sequence (O15427 1-465): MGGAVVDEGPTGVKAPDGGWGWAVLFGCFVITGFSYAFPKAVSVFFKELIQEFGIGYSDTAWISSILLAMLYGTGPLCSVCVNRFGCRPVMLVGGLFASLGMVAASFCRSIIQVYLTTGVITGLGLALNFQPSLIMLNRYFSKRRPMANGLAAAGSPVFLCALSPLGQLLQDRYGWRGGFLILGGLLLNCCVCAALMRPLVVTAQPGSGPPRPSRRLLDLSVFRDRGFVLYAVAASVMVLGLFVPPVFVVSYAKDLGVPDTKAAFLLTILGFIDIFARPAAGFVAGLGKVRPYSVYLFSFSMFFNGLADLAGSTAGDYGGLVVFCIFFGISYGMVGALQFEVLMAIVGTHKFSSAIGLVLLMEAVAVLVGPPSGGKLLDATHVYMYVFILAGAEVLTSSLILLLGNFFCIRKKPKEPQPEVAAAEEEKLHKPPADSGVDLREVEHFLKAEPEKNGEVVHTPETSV
Source text: as §1

[3] = molecular target: T3, Peroxiredoxin-4 (PRDX4) (Homo sapiens, UniProt Q13162)
T3 sequence (Q13162 38-271): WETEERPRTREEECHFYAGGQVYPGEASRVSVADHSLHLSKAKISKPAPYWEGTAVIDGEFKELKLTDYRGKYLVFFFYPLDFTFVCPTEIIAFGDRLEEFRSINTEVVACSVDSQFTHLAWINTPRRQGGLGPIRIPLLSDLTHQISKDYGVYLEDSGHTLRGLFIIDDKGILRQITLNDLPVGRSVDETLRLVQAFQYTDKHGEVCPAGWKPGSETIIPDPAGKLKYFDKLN
Source text: as §1

[4] = molecular target: T4, Phosphate carrier protein, mitochondrial (SLC25A3) (Homo sapiens, UniProt Q00325); for Abundance Ratio: (11) / (11 with PU-H71): test concentration or dose not given here; for Abundance Ratio: (11) / (DMSO): test concentration or dose not given here
T4 sequence (Q00325 50-362): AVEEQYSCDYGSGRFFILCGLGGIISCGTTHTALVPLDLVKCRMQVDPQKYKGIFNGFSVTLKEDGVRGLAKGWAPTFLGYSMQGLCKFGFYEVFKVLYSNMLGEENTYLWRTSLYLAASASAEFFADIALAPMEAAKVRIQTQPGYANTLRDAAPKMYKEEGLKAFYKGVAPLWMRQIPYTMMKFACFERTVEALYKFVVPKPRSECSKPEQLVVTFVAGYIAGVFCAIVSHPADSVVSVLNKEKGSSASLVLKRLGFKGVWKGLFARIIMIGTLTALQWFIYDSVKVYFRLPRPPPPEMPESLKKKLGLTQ
Source text: as §1

## CC(=O)Oc1ccc2c(c1)Oc1cc(OC(C)=O)ccc1C21OC(=O)c2cc(C(=O)NCCOCCOCCNC(=O)CCCC(=O)N(CC#N)S(=O)(=O)c3ccc(C(=O)NCCCn4c(Sc5cc6c(cc5I)OCO6)nc5c(N)ncnc54)cc3)ccc21 [compound 11]
[1]; Exp3
  Abundance Ratio: (11) / (11 with PU-H71): 1.072
  Abundance Ratio: (11) / (DMSO): 2.893
  Abundances (Grouped): 11: 29.8
[1]; Exp3, with PU-H71
  Abundances (Grouped): 11 with PU-H71: 27.8
[2]; Exp3
  Abundance Ratio: (11) / (11 with PU-H71): 0.921
  Abundance Ratio: (11) / (DMSO): 12.228
  Abundances (Grouped): 11: 353.4
[2]; Exp3, with PU-H71
  Abundances (Grouped): 11 with PU-H71: 383.7
[3]; Exp3
  Abundance Ratio: (11) / (11 with PU-H71): 0.973
  Abundance Ratio: (11) / (DMSO): 2.612
  Abundances (Grouped): 11: 25.6
[3]; Exp3, with PU-H71
  Abundances (Grouped): 11 with PU-H71: 26.3
[4]; Exp3
  Abundance Ratio: (11) / (11 with PU-H71): 0.732
  Abundance Ratio: (11) / (DMSO): 2.193
  Abundances (Grouped): 11: 121.3
[4]; Exp3, with PU-H71
  Abundances (Grouped): 11 with PU-H71: 165.7
